Tested on: Calf thymus DNA
Experiment: Binding affinity to calf thymus duplex-form DNA assessed as melting temperature at 1:5 compound/DNA ratio after 18 hrs
Type: nucleic-acid assay
Conditions: Bos taurus

Structure (SMILES) | ΔTm
COc1cc2c(cc1OCCCCCOc1ccc(-c3nc4ccccc4o3)cc1)N=C[C@@H]1CCCN1C2=O | 4.3 °C
COc1cc(-c2nc3ccccc3o2)ccc1OCCCCCOc1cc2c(cc1OC)C(=O)N1CCC[C@H]1C=N2 | 4.2 °C

Source: ChEMBL document CHEMBL1177643, “Synthesis, DNA-binding ability and anticancer activity of benzothiazole/benzoxazole-pyrrolo[2,1-c][1,4]benzodiazepine conjugates” (Bioorg Med Chem, 2010)
